Read-outs that look alike come from different tables or passages of the source.
Key:
BRM = target: T1, BRM (Homo sapiens, UniProt P51531); test: ATPase catalytic activity of BRM, ADP-Glo in vitro biochemical assay; details: for IC50: 30 nM BRM, 400 μM ATP; for Ratio* (BRG1 IC50 (μM) divided by BRM IC50 (μM)): selectivity ratio BRG1 IC50 / BRM IC50; for Ratio*: ratio of BRG1 IC50 to BRM IC50
T1 construct: made in house; host or cells: High Five insect cells
Method in brief: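 ADP-Glo luminescence, after depletion of leftover ATP and conversion of ADP, reported the activity. The 1 h room-temperature reaction held 400 μM ATP, 20 nM salmon sperm DNA and 30 nM BRM in 20 mM Tris pH 8, 20 mM MgCl2, 50 mM NaCl, 0.1% Tween-20, 1 mM DTT.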

BRG-1 = target: T2, BRG-1 (Homo sapiens, UniProt P51532); test: ATPase catalytic activity of BRG-1, ADP-Glo in vitro biochemical assay; details: 30 nM BRG-1, 400 μM ATP, read-out: BRG1 IC50
T2 construct: made in house; host or cells: High Five insect cells
T2 sequence (P51532 whole entry): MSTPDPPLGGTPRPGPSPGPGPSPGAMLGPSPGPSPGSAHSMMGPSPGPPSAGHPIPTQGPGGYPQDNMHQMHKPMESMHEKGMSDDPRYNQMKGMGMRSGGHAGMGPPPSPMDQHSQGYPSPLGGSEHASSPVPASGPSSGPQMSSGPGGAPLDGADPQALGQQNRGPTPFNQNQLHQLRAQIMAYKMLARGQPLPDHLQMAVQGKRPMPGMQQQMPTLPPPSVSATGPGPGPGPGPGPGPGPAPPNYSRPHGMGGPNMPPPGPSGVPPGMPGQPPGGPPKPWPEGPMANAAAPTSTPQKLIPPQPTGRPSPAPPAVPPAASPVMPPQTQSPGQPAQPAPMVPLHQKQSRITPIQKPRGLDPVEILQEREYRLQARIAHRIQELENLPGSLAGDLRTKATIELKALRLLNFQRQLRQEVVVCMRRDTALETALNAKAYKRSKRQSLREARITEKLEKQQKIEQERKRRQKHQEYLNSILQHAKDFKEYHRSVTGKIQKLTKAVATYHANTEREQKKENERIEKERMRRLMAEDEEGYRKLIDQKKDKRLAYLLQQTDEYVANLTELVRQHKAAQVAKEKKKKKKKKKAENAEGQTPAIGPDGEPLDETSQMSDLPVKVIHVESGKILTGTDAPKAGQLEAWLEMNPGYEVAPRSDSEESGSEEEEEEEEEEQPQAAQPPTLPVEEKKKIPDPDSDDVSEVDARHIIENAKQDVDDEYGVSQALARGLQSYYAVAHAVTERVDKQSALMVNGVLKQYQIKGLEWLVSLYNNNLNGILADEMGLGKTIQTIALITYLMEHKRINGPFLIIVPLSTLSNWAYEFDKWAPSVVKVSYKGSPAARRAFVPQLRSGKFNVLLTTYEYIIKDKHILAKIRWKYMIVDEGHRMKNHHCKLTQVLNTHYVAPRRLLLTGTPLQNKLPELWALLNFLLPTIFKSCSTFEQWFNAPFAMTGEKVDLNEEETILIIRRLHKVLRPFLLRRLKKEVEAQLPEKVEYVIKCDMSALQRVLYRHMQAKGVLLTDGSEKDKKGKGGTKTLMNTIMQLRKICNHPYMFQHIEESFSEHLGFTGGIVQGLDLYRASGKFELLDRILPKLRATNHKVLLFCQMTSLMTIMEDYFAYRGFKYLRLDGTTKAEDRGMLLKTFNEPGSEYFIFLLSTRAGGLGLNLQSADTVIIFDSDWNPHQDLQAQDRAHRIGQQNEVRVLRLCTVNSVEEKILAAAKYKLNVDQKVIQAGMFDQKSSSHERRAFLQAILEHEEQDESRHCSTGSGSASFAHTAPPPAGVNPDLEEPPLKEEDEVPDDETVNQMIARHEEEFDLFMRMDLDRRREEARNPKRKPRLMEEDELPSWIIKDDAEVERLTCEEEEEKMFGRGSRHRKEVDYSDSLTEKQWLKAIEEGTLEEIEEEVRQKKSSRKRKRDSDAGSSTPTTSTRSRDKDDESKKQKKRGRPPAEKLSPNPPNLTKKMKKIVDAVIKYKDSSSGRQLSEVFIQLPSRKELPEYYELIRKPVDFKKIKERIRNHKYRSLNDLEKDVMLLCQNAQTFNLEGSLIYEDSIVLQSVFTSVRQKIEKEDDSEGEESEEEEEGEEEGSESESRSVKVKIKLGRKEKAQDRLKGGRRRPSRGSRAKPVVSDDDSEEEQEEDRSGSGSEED
Method in brief: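 Luminescence read-out: ADP formed by BRG-1 ATPase is converted to ATP and detected by luciferase. Residual ATP is first removed with ADP-Glo Reagent for 40 min at RT; detection reagent is then incubated 60 min at RT before reading.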

[1] = ATPase catalytic activity, ADP-Glo

T1 sequence (P51531 whole entry): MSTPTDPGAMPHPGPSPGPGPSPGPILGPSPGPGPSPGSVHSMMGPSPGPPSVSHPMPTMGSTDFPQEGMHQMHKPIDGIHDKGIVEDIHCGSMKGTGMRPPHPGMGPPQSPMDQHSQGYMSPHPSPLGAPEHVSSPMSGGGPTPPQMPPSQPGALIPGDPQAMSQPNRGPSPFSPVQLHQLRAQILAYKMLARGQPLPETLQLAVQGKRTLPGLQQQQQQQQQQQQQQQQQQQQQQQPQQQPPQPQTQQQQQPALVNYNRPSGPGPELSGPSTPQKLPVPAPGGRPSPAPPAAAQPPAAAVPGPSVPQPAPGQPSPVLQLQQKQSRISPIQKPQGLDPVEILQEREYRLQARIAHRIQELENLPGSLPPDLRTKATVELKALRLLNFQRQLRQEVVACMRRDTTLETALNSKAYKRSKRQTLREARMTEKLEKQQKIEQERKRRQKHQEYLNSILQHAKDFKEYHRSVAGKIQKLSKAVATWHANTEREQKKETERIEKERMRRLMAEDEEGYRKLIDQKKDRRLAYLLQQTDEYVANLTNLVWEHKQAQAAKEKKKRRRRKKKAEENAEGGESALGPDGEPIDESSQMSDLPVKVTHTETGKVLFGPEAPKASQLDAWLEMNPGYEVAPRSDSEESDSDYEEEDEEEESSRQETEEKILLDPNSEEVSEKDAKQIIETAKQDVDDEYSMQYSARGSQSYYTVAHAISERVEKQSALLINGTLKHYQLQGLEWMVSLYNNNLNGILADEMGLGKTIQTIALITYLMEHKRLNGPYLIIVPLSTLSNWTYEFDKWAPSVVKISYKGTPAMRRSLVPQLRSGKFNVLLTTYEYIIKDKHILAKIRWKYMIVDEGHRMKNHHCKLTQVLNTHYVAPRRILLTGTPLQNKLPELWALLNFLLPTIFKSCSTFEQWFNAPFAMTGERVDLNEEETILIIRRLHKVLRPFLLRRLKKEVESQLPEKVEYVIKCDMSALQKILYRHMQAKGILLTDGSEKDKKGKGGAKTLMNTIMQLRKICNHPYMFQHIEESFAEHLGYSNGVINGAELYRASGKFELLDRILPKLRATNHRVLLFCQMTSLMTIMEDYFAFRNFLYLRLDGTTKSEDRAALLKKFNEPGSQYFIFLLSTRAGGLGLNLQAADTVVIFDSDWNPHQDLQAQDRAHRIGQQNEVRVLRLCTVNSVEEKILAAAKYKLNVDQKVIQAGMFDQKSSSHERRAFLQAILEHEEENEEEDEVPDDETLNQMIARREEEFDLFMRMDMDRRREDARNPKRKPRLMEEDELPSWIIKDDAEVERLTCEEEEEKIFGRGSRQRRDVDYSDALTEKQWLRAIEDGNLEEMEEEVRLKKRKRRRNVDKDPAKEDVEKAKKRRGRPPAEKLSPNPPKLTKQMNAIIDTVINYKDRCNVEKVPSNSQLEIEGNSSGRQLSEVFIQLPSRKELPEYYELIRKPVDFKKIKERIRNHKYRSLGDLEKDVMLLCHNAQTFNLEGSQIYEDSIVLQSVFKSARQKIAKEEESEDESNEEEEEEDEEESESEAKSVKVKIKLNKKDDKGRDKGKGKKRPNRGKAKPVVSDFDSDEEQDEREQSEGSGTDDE

Row | Compound | IC50 (BRM; ADP-Glo ATPase assay) [µM] | Ratio* (BRG1 IC50 (μM) divided by BRM IC50 (μM)) (BRM) | IC50 (BRG-1; ADP-Glo ATPase assay) [µM] | IC50 (BRM; [1]) [µM] | Ratio* (BRM) | IC50 (BRG-1; [1]) [µM]
1 | O=C(NCc1cc2nc(-c3cncc(C4CC4)n3)ccc2cn1)c1ccc2c(c1)S(=O)(=O)CCCO2 [Compound 302] | 0.277 | 8.50 | 2.35 | – | – | –
2 | CN(C)c1cccc(-c2ccc3cnc(CNC(=O)c4ccc5c(c4)S(=O)(=O)CCOC5)cc3n2)n1 [Compound 303] | 0.0123 | 12.63 | 0.156 | – | – | –
3 | O=C(NCc1cc2nc(-c3cccc(N4CCC4)n3)ccc2cn1)c1ccc2c(c1)S(=O)(=O)CCOC2 [Compound 304, N-[[2-[6-(azetidin-1-yl)-2-pyridyl]-1,6-naphthyridin-7-yl]methyl]-1,1-dioxo-3,5-dihydro-2H-4,1λ6-benzoxathiepine-8-carboxamide] | 0.0094 | 14.43 | 0.136 | – | – | –
4 | O=C(NCc1cc2nc(-c3cncc(C4CC4)n3)ccc2cn1)c1ccc2c(c1)S(=O)(=O)CCOC2 [Compound 305] | 0.03 | 9.32 | 0.279 | – | – | –
5 | CS(=O)(=O)c1cncc(C(=O)NCc2cc3nc(-c4cncc(C5CC5)n4)ccc3cn2)c1 [Compound 306] | 0.855 | 4.98 | 4.25 | – | – | –
6 | O=C(NCc1cc2nc(-c3cccc(N4CCCC(F)(F)C4)n3)ccc2cn1)c1ccc2c(c1)S(=O)(=O)CCOC2 [Compound 308] | 0.0054 | 2.91 | 0.0158 | – | – | –
7 | COC[C@@H]1C[C@H]1N(C)c1cccc(-c2ccc3cnc(CNC(=O)c4ccc5c(c4)S(=O)(=O)CCOC5)cc3n2)n1 [Compound 311] | – | – | – | 0.022 | 12.86 | 0.283
8 | COC[C@H]1C[C@@H]1N(C)c1cccc(-c2ccc3cnc(CNC(=O)c4ccc5c(c4)S(=O)(=O)CCOC5)cc3n2)n1 [Compound 312] | – | – | – | 0.0245 | 13.30 | 0.326
9 | COCCN1CCCOc2c(-c3ccc4cnc(CNC(=O)c5ccc6c(c5)S(=O)(=O)CCOC6)cc4n3)cccc21 [Compound 313] | – | – | – | 0.105 | 3.69 | 0.387
10 | CN(CC1(F)COC1)c1cccc(-c2ccc3cnc(CNC(=O)c4ccc5c(c4)S(=O)(=O)CCOC5)cc3n2)n1 [Compound 314] | – | – | – | 0.0457 | 10.51 | 0.48
11 | Cc1ccc2c(n1)N(c1ccc3cnc(CNC(=O)c4ccc5c(c4)S(=O)(=O)CCOC5)cc3n1)CCC2 [Compound 315] | – | – | – | 0.0184 | 18.47 | 0.34
12 | COc1cc(CC(F)F)ccc1-c1ccc2cnc(CNC(=O)c3ccc4c(c3)S(=O)(=O)CCOC4)cc2n1 [Compound 316] | – | – | – | 0.0471 | 10.49 | 0.495
13 | C[C@]1(F)CCCN(c2cccc(-c3ccc4cnc(CNC(=O)c5ccc6c(c5)S(=O)(=O)CCOC6)cc4n3)n2)C1 [Compound 317] | – | – | – | 0.0063 | 5.55 | 0.0348
14 | C[C@@]1(F)CCCN(c2cccc(-c3ccc4cnc(CNC(=O)c5ccc6c(c5)S(=O)(=O)CCOC6)cc4n3)n2)C1 [Compound 318] | – | – | – | 0.0094 | 8.53 | 0.0804
15 | CC1COCc2ccc(C(=O)NCc3cc4nc(-c5cccc(N6C[C@@H](C)O[C@@H](C)C6)n5)ccc4cn3)cc2S1(=O)=O (stereo partly drawn) [Compound 319] | – | – | – | 0.0211 | 15.59 | 0.329
16 | COc1cc(C(F)F)ccc1-c1ccc2cnc(CNC(=O)c3ccc4c(c3)S(=O)(=O)[C@@H](C)COC4)cc2n1 [Compound 320] | – | – | – | 0.012 | 18.81 | 0.226
17 | O=C(NCc1cc2nc(-c3cccc(N4CC[C@@H]5C[C@@H]5C4)n3)ccc2cn1)c1ccc2c(c1)S(=O)(=O)CCOC2 [Compound 321] | – | – | – | 0.016 | 12.19 | 0.195
18 | O=C(NCc1cc2nc(-c3cccc(N4CC[C@H]5C[C@H]5C4)n3)ccc2cn1)c1ccc2c(c1)S(=O)(=O)CCOC2 [Compound 322] | – | – | – | 0.011 | 10.96 | 0.12
19 | COC1(CN(C)c2cccc(-c3ccc4cnc(CNC(=O)c5ccc6c(c5)S(=O)(=O)CCOC6)cc4n3)n2)CC1 [Compound 323] | – | – | – | 0.0171 | 13.46 | 0.23
20 | CC1CCc2ccc(C(=O)NCc3cc4nc(-c5cccc(N6C[C@@H](C)O[C@@H](C)C6)n5)ccc4cn3)cc2S1(=O)=O (stereo partly drawn) [Compound 324] | – | – | – | 0.0248 | 24.73 | 0.614
21 | C[C@@H]1CN(c2cccc(-c3ccc4cnc([C@H](C)NC(=O)c5ccc6c(c5)S(=O)(=O)[C@@H](C)COC6)cc4n3)n2)C[C@H](C)O1 [Compound 325] | – | – | – | 0.0106 | 16.33 | 0.174
